Test results published in US20230405002A1, “COMBINATIONS OF DIACYLGLYCEROL ACYLTRANSFERASE 2 INHIBITORS AND ACETYL-COA CARBOXYLASE INHIBITOR” (Pfizer Inc., priority 2020, published 2023).

Columns and labels:
SREBP-1 = assay: Compound A / Compound D study in Western diet fed rats: nuclear SREBP-1 localization (Western blot); format: in vivo, rat; details: high dose; relative to vehicle treated Western diet fed rats
Description: A randomized, vehicle-controlled, 8-parallel arm study was conducted in male Sprague-Dawley rats (Charles River (Boston, MA)) to obtain circulating and hepatic TG levels. Standard laboratory conditions were used to house 96 rats (˜200 g); they were double housed and kept under 12:12-hour reverse light-dark schedule (lights off at 8:00 AM). Rats were randomized into chow or Western diet groups and dose groups upon arrival and were given a 14-day lead-in period on either standard rat chow or Western diet prior to the start of the study. Standard Laboratory Rodent chow diet, 5053, was from LabDiet (PMI, St Louis, Missouri). Western Diet, D12079Bi, was from Research Diets (New Brunswick, NJ).
Nuclear and Membrane fractions were prepared by ultracentrifugation using standard methods from a portion of the pulverized liver samples, that were pooled per treatment group. Samples from the nuclear extract and the membrane fractions were analyzed by Western blotting for SREBP1. Western blots for Calnexin was used as a marker for the membrane fraction, actin as a marker for total sample loading, and Histone 2B as a marker for the nuclear fraction. Nuclear SREBP1 levels were quantified using relative units and normalized to Histone 2B to control for sample loss during the nuclear fractionation and gel loading.

[1] = system: CDAHFD fed male Wistar-Han rats; assay: CDAHFD rat study: liver stiffness by shearwave elastography; format: in vivo; details: Compound A 5 mg/kg, Compound D 30 mg/kg twice daily, 6 weeks
Text: (§1) Standard laboratory conditions were used to house 60 rats (˜200 g); they were double housed and kept under 12:12-hour reverse light-dark schedule (lights off at 8:00 AM). Rats were fed choline deficient and high fat diet (CDAHFD) beginning 6-weeks prior to initiation of the study. […] Animals (n=12) remaining on normal chow throughout the study and administered twice-daily vehicle were used as a control group. Blood samples were collected prior to starting compound administration and 3- and 6-week post compound administration for the assessment of circulating markers. Shearwave elastography (Aixplorer Ultimate imager, Supersoinc imagine) measurements were made at Week −3, Week 0 (prior to 1st dose), Week 3 and Week 6 to assess inflammation and fibrosis progression over time. Histology was assessed following 6-weeks of drug administration which corresponded to 12 weeks on the CDAHFD. Results are provided as an average of animals per each dosing group.

αSMA and COL1A1 = assay: CDAHFD rat study: hepatic αSMA and COL1A1 gene expression (qPCR); format: in vivo; details: Compound A 5 mg/kg, Compound D 30 mg/kg twice daily, 6 weeks
Text: as §1
Following the 12-weeks on CDAHFD, the animals were sacrificed by CO2 asphyxiation. The right lateral, medial and left lateral lobes of the liver were harvested. […] A portion of the pulverized liver sample from each animal was processed and analyzed for gene expression markers of fibrogenesis. Rat taqman probes against αSMA and COL1A1 were all assessed using Actb as housekeeping gene on qPCR.

[2] = system: CDAHFD fed male Wistar-Han rats; assay: CDAHFD rat study: liver histology (αSMA IHC, Picrosirius red, Iba1 staining); format: in vivo; details: Compound A 5 mg/kg, Compound D 30 mg/kg twice daily, 6 weeks
Text: as §1
Following the 12-weeks on CDAHFD, the animals were sacrificed by CO2 asphyxiation. The right lateral, medial and left lateral lobes of the liver were harvested. Sections were taken from the left lateral, right medial and right lateral lobes and fixed in formalin and processed to paraffin blocks per animal. One section of left lateral lobe per animal was cryopreserved in optimal cutting temperature (OCT) compound. The remainder of the liver from each animal was frozen and rapidly pulverized on an aluminum block cooled in liquid N2, ensuring the tissue remained frozen throughout the pulverization. The pulverized tissue was transferred and stored at −80° C. until analysis. A portion of the pulverized liver sample from each animal was processed and analyzed for gene expression markers of fibrogenesis. Rat taqman probes against αSMA and COL1A1 were all assessed using Actb as housekeeping gene on qPCR.
The following endpoints were evaluated by qualitative histologic evaluation by a board certified veterinary pathologist and quantitative histomorphometry: hepatic stellate cell activation and differentiation into myofibroblasts by αSMA immunohistochemistry (IHC); Collagen as a correlate of fibrosis by Picrosirius Red stain. Images were analyzed using Visiopharm software. Visiopharm applications with threshold parameters were applied uniformly to identify tissue sections and to quantify the targets on each IHC (DAB (3,3′-diaminobenzidine) positive) or histochemically stained slides as percent area: stain area of interest/Total tissue ROI−whitespace)×100%. Non-parametric statistics were used to analyze data from this study. Group values were reported as mean+/− the standard error of the mean.

Structure (SMILES) | nuclear SREBP-1 localization (SREBP-1) | liver stiffness (shearwave elastography) [1] | hepatic αSMA and COL1A1 gene expression (αSMA and COL1A1) | reduction of Iba1 staining [2] | reduction of Picosrius red (PSR) staining [2] [%] | reduction of αSMA staining [2] [%]
CCOc1cccnc1Oc1cncc(-c2ncc(C(=O)N[C@H]3CCOC3)cn2)c1 [Compound D, (S)-2-(5-((3-ethoxypyridin-2-yl)oxy)pyridin-3-yl)-N-(tetrahydrofuran-3-yl)pyrimidine-5-carboxamide] | reduced SREBP-1 nuclear localization | reduced liver stiffness | reduced hepatic αSMA and COL1A1 gene expression | did not alter Iba1 staining | 20 | 23
COc1cc(C(=O)N2CCC3(CC2)CC(=O)c2c(cnn2C(C)C)C3)cc(-c2ccc(C(=O)O)cc2)n1 [Compound A, 4-(4-(1-isopropyl-7-oxo-1,4,6,7-tetrahydrospiro[indazole-5,4′-piperidine]-1′-carbonyl)-6-methoxypyridin-2-yl)benzoic acid] | increased nuclear localization of SREBP-1 | reduced liver stiffness | reduced hepatic αSMA and COL1A1 gene expression | 15% | 26 | 41
